# Measured values: patent publication EP0198605A1, “Prophylaxis of pharmacotherapy of liver disorders” (TEIJIN LIMITED, priority 1985, dated 1986)
# Like-named read-outs stand apart in the source and are kept apart here.
# Columns and labels:
# [1] = test system: hepatic necrocytosis induced by carbon tetrachloride; experiment: Hepatic necrocytosis induced by carbon tetrachloride (in vivo), serum GOT and GPT; design: species or system SD male rats; conditions: for Enzyme Activity GOT (U/L) / Enzyme Activity GPT (U/L): 6 administrations, CCl4 0.5 ml/kg i.p.; for inhibiting liver necrocytosis induced by CCl4 (result in words): in vivo, summary of Tables 4 to 6
# Description: In the evaluation tests, 6 weeks old SD male rats were used. […] The rats were freely fed or supplied with a solid feed and drinking water.
# Carbon tetrachloride (CC14) was diluted with an olive oil and was peritoneally injected in each rat at a dosage of 0.5 ml/kg. To the control group, only CC14 diluted with the olive oil and a 5% gum arabic solution containing no active ingredient were administered. Furthermore, only the olive oil but no CC14 was administered to the olive oil injection group in the Tables.
# The methincyanine compounds listed in Tables 4 to 6 were administered as follows. Methincyanine compounds were diluted 100 times with dextrose dissolved in 5% gum arabic solutions. The administration schedules were such that the methiocyanine compounds were administered 6 times in total from 5 days before the CC14 injection to the day of the injection.
# Blood was sampled from the orbital veniplex of the rat and was allowed to stand at room temperature for one hour. The blood sample was then centrifugally separated at 2800 rpm for 10 minutes. The resultant supernatant was used as a serum sample.
# The determination of GOT and GPT in the serum sample was carried out by using a determination kit (available from Boeklinger-Yamanouchi Co.) and the results were recorded in an automatic analyzer (available from FLEXIGEM Co.).
# [2] = test system: hepatic disorders induced by D-galactosamine; experiment: Hepatic disorders induced by D-galactosamine in rats (serum GOT, GPT, bilirubin, complement value); format: in vivo, Wister male rats; conditions: DSCG i.p. 1 mg/kg, GalN 250 mg/kg i.p., serum two days after GalN
# Description: In the evaluation tests, 8 to 9 weeks old Wister male rats were used. Five rats were used in each test group. The rats were given standard chow and water ad libitum.
# D-Galactosamine hydrochloride (GalN) was dissolved in sterilized physiological saline and the pH thereof was adjusted to 7. The resultant solution was peritoneally administered to each rat at a dosage of 250 mg/kg. To one control group, only GalN was injected, and physiological saline was administered to the other control group instead of pionin. Furthermore, only physiological saline but no GaIN was injected to the physiological saline administration group.
# The pionin was administered as follows. It is diluted 10, 100, and 1000 times with dextrose and these diluted powders were dissolved in saline. All drugs were intravenously or orally administered at doses of 0.1, 0.5, 1, and 10 pg/kg. The administration was carried out from five days before to the day after the GaIN injection.
# The rats were killed two days after the injection of GalN and blood was collected. The blood samples were allowed to stand at room temprature for one hour and serum was then centrifugally separated at 2500 rpm for 10 minutes.
# The determination of GOT and GPT in the serum samples was carried out according to a modification of the Reitman-Framkel method [see Amir. J. Clin. Pothil. 28, 56 (1957) and J. Clin. Invest. 34, 131 (1955)], the determination of bilirubin was carried out according to a modification of Jendrassik-Grof method [see Clinical Chemistry, 19, 984-993 (1973)], and the determination of the complement value was carried out according to the Mayer method (see Experimental Immunochemistry, 2, 133-240, 1961).
# The results are shown in Table 2 (i.e., intravenous administration of pionin) and Table 3 (i.e., oral administration of pionin). Disodium cromoglycate (i.e., DSCG) was used as a control.
# [3] = test system: hepatic disorders induced by D-galactosamine; experiment: as above; format: in vivo, Wister male rats; conditions: for Bilirubin / Complement value (%) / Enzyme activity GOT (K.U.) / Enzyme activity GPT (K.U.): GalN 250 mg/kg i.p., serum two days after GalN
# rat liver cells = experiment: Hepatic necrocytosis induced by carbon tetrachloride (in vitro), trypan blue exclusion test; format: cell-based
# Description: Liver cells were prepared according to a method disclosed in Nakamura et al "Proteins, Nucleic Acids, and Enzymes" Vol. 24, pages 55-76 (1981). That is, the rat liver cells, which were previously peritoneally treated with phenobarbital at 80 mg/kg/day for 3 days, were collected by centrifugal separation after being subjected to 0.05% collagenase perfusion.
# The liver cells thus obtained were suspended in a William's E culture medium containing 10% fetal calf serum, dexamethasone (10^-6 M) and insulin (0.02 unit/ml). A 3 ml amount of the cell dispersion having a cell content of 5 x 10^S cells/ml was placed in a 25 mm Falcon dish and was then incubated at a temperature of 37°C under an atmosphere of 5% C02 and 95% air for 3 hours. After 3 hours incubation, the number of surviving liver cells in the incubated dish was measured according to a trypan blue exclusion test. The average value thereof was used as a control value for the survival percentage of the liver cells in the pre-incubation.
# Then, a culture medium containing 2-[2-(3-heptyl-4-methyl-4-thiazolin-2-ylidene) methyll-3-heptyl thiazolinium iodide (i.e., pionin) dissolved in ethanol was substituted after removing non-adhesive cells and was then incubated for a further one hour. The concentrations of pionin in the culture medium were 0.94 x 10^-6, 1.8x10^-7, 1x10^-8, 1x10^-9, and I x 10^-10 mole and, as a control or comparative test, the culture medium itself, the culture medium containing 0.5% of ethanol, and the culture medium containing 0.25 µm/ml of carbon tetrachloride were used.
# Then, 0.25 pm/ml of carbon tetrachloride was added to each culture dish and the incubation was carried out for a further 3 hours under the same conditions mentioned above. No further carbon tetrachloride was added to the comparative culture containing carbon tetrachloride. After 3 hours incubation, the number of survival liver cells was measured according to a trypan blue exclusion test. The percentage ratio of the mean survival number to the survival number of the above-mentioned pre-incubation was then calculated.
# The results are shown in Table 1, in which the mean survival cell percentage (%) and standard deviation thereof in the culture dish containing 4 to 29 liver cells (i.e., N). Statistical significance was evaluated by Student's t-test.
# rats = conditions: oral, cited from earlier work
# [4] = Table 2 experiment, DSCG i.p. 1 mg/kg
# [5] = Table 3 experiment, DSCG i.p. 1 mg/kg
# [6] = Table 2, intravenous, 0.1 µg/kg
# [7] = Table 2, intravenous, 0.5 µg/kg
compound,measurement,setting,value
"CCCCCCCCCCCCN1C(C)=CSC1=Cc1scc(C)[n+]1CC [Compound of Example 3, 2-[2-(3-dodecyl-4-methyl-4-thiazolin-2-ylidene)methyl]-3-ethyl-4-methyl thiazolinium iodide]",Enzyme Activity GOT (U/L),"[1]; Table 5, oral, 10 µg/kg",435 ± 67 U/L
same,Enzyme Activity GPT (U/L),"[1]; Table 5, oral, 10 µg/kg",107 ± 18 U/L
"CCCCCCCCCCCCN1C(C)=CSC1=Cc1scc(C)[n+]1CCCC [Compound of Example 1, 2-[2-(3-dodecyl-4-methyl-4-thiazolin-2-ylidene)methyl]-3-butyl-4-methyl thiazolinium iodide]",Enzyme Activity GOT (U/L),"[1]; Table 6, oral, 10 µg/kg",627 ± 92 U/L
same,Enzyme Activity GPT (U/L),"[1]; Table 6, oral, 10 µg/kg",198 ± 37 U/L
same,inhibiting liver necrocytosis induced by CCl4 (result in words),[1],strong inhibiting activities against liver necrocytosis induced by CC14 when compared with pionin
"O=C(O)c1cc(=O)c2c(OCC(O)COc3cccc4oc(C(=O)O)cc(=O)c34)cccc2o1 [DSCG, Disodium cromoglycate, reference compound]",Enzyme activity GPT (K.U.),[2]; Table 2 experiment,220 ± 20 K.U.
same,Bilirubin,[2]; Table 3 experiment,0.21 mg/dL
same,Enzyme activity GOT (K.U.),[2]; Table 3 experiment,480 ± 50 K.U.
same,Bilirubin,[3]; [4],0.29 mg/dL
same,Complement value (%),[3]; [4],88.4%
same,Enzyme activity GOT (K.U.),[3]; [4],400 ± 42 K.U.
same,Complement value (%),[3]; [5],80.4%
same,Enzyme activity GPT (K.U.),[3]; [5],230 ± 33 K.U.
"CCCCCCC[n+]1cc(C)sc1C=C1SC=C(C)N1CCCC [Compound of Example 4, 2-[2-(3-butyl-4-methyl-4-thiazolin-2-ylidene)methyl]-3-heptyl-5-methyl thiazolinium iodide]",Enzyme Activity GOT (U/L),"[1]; Table 5, oral, 10 µg/kg",386 ± 50 U/L
same,Enzyme Activity GPT (U/L),"[1]; Table 5, oral, 10 µg/kg",118 ± 21 U/L
"CCCCCCCN1C(C)=CSC1=Cc1scc(C)[n+]1CCCCCCC [Pionin, 2-[2-(3-heptyl-4-methyl-4-thiazolin-2-ylidene)methyl]-3-heptyl-4-methyl thiazolinium iodide]",viability at 0.94 µM,"rat liver cells; Rattus norvegicus, CCl4 + Pionin 0.94 x 10^-6 M, 3 hours after CCl4, mean ± standard deviation, read-out: Survival ratio (%)",43.6 ± 11.6%
same,viability at 0.01 µM,"rat liver cells; Rattus norvegicus, CCl4 + Pionin 1 x 10^-8 M, 3 hours after CCl4, mean ± standard deviation, read-out: Survival ratio (%)",63.5 ± 19%
same,viability at 0.001 µM,"rat liver cells; Rattus norvegicus, CCl4 + Pionin 1 x 10^-9 M, 3 hours after CCl4, mean ± standard deviation, read-out: Survival ratio (%)",63.4 ± 6.8%
same,viability at 0.0001 µM,"rat liver cells; Rattus norvegicus, CCl4 + Pionin 1 x 10^-10 M, 3 hours after CCl4, mean ± standard deviation, read-out: Survival ratio (%)",63.2 ± 23%
same,viability at 0.18 µM,"rat liver cells; Rattus norvegicus, CCl4 + Pionin 1.8 x 10^-7 M, 3 hours after CCl4, mean ± standard deviation, read-out: Survival ratio (%)",47.1 ± 8.1%
same,inhibiting liver necrocytosis (result in words),"rat liver cells; in vitro, summary of Table 1",has an activity capable of inhibiting liver necrocytosis
same,Enzyme Activity GOT (U/L),"[1]; Table 4, oral, 1 µg/kg",678.3 ± 76.5 U/L
same,Enzyme Activity GPT (U/L),"[1]; Table 4, oral, 1 µg/kg",209.0 ± 31.2 U/L
same,Enzyme Activity GOT (U/L),"[1]; Table 4, oral, 3 µg/kg",754.5 ± 108.8 U/L
same,Enzyme Activity GPT (U/L),"[1]; Table 4, oral, 3 µg/kg",269.7 ± 50.3 U/L
same,Enzyme Activity GOT (U/L),"[1]; Table 4, oral, 10 µg/kg",559.2 ± 56.6 U/L
same,Enzyme Activity GPT (U/L),"[1]; Table 4, oral, 10 µg/kg",165.8 ± 25.9 U/L
same,Enzyme Activity GOT (U/L),"[1]; Table 4, oral, 30 µg/kg",946.8 ± 110.6 U/L
same,Enzyme Activity GPT (U/L),"[1]; Table 4, oral, 30 µg/kg",311.4 ± 49.4 U/L
same,Enzyme Activity GOT (U/L),"[1]; Table 6, oral, 10 µg/kg",807 ± 172 U/L
same,Enzyme Activity GPT (U/L),"[1]; Table 6, oral, 10 µg/kg",251 ± 83 U/L
same,inhibiting liver necrocytosis induced by CCl4 (result in words),[1],has an activity capable of inhibiting liver necrocytosis induced by CCl4
same,LD50,rats; female rats,503 mg/kg
same,LD50,rats; male rats,460 mg/kg
same,Bilirubin,[3]; [6],0.51 mg/dL
same,Complement value (%),[3]; [6],88.2%
same,Enzyme activity GOT (K.U.),[3]; [6],550 ± 160 K.U.
same,Enzyme activity GPT (K.U.),[3]; [6],510 ± 62 K.U.
same,Bilirubin,[3]; [7],0.35 mg/dL
same,Complement value (%),[3]; [7],96.6%
same,Enzyme activity GOT (K.U.),[3]; [7],420 ± 30 K.U.
same,Enzyme activity GPT (K.U.),[3]; [7],300 ± 55 K.U.
same,Bilirubin,"[3]; Table 2, intravenous, 1 µg/kg",0.44 mg/dL
same,Complement value (%),"[3]; Table 2, intravenous, 1 µg/kg",91.2%
same,Enzyme activity GOT (K.U.),"[3]; Table 2, intravenous, 1 µg/kg",780 ± 29 K.U.
same,Enzyme activity GPT (K.U.),"[3]; Table 2, intravenous, 1 µg/kg",600 ± 40 K.U.
same,Bilirubin,"[3]; Table 2, intravenous, 10 µg/kg",0.77 mg/dL
same,Complement value (%),"[3]; Table 2, intravenous, 10 µg/kg",87.6%
same,Enzyme activity GOT (K.U.),"[3]; Table 2, intravenous, 10 µg/kg",1036 ± 50 K.U.
same,Enzyme activity GPT (K.U.),"[3]; Table 2, intravenous, 10 µg/kg",980 ± 39 K.U.
same,Bilirubin,"[3]; Table 3, oral, 0.1 µg/kg",0.77 mg/dL
same,Complement value (%),"[3]; Table 3, oral, 0.1 µg/kg",86.1%
same,Enzyme activity GOT (K.U.),"[3]; Table 3, oral, 0.1 µg/kg",1200 ± 198 K.U.
same,Enzyme activity GPT (K.U.),"[3]; Table 3, oral, 0.1 µg/kg",1003 ± 87 K.U.
same,Bilirubin,"[3]; Table 3, oral, 0.5 µg/kg",0.36 mg/dL
same,Complement value (%),"[3]; Table 3, oral, 0.5 µg/kg",91.1%
same,Enzyme activity GOT (K.U.),"[3]; Table 3, oral, 0.5 µg/kg",622 ± 100 K.U.
same,Enzyme activity GPT (K.U.),"[3]; Table 3, oral, 0.5 µg/kg",550 ± 51 K.U.
same,Bilirubin,"[3]; Table 3, oral, 1 µg/kg",0.55 mg/dL
same,Complement value (%),"[3]; Table 3, oral, 1 µg/kg",92.3%
same,Enzyme activity GOT (K.U.),"[3]; Table 3, oral, 1 µg/kg",710 ± 30 K.U.
same,Enzyme activity GPT (K.U.),"[3]; Table 3, oral, 1 µg/kg",440 ± 13 K.U.
same,Bilirubin,"[3]; Table 3, oral, 10 µg/kg",0.88 mg/dL
same,Complement value (%),"[3]; Table 3, oral, 10 µg/kg",88.8%
same,Enzyme activity GOT (K.U.),"[3]; Table 3, oral, 10 µg/kg",1350 ± 136 K.U.
same,Enzyme activity GPT (K.U.),"[3]; Table 3, oral, 10 µg/kg",1200 ± 188 K.U.
same,inhibition of liver disorders induced by D-galactosamine (result in words),[3]; summary of Tables 2 and 3,can inhibit liver disorders induced by D-galactosamine
"CCCCCCCCCCN1C(C)=CSC1=Cc1scc(C)[n+]1CCCC [Compound of Example 8, 2-[2-(3-decyl-4-methyl-4-thiazolin-2-ylidene)methyl]-3-butyl-4-methylthiazolinium iodide]",Enzyme Activity GOT (U/L),"[1]; Table 5, oral, 10 µg/kg",310 ± 68 U/L
same,Enzyme Activity GPT (U/L),"[1]; Table 5, oral, 10 µg/kg",99 ± 27 U/L
"CCCCCCC[n+]1c(C=C2SC=C(C)N2CCCC)sc(C)c1C [Compound of Example 5, 2-[2-(3-butyl-4-methyl-4-thiazolin-2-ylidene)methyl]-3-heptyl-4,5-dimethyl thiazolinium iodide]",Enzyme Activity GOT (U/L),"[1]; Table 5, oral, 10 µg/kg",393 ± 59 U/L
same,Enzyme Activity GPT (U/L),"[1]; Table 5, oral, 10 µg/kg",135 ± 29 U/L
